Reference: paper PMC7515829, “HKDC1 C-terminal based peptides inhibit extranodal natural killer/T-cell lymphoma by modulation of mitochondrial function and EBV suppression” (Leukemia, 2020)

Legend:
ABCB1 = assay: mRNA level by qPCR in SNK6 cells; format: cell-based, human; conditions: 0.5 µM peptide, 6 h, vs CTL, n = 4 (Fig. 3f)
Experimental: (§1) Fig. 3 Peptide for the last eight aa of HKDC1 at the C-terminal (Tf-D-HKC8) inhibits EBV replication and P-gp expression through ROS generation and DNA damage in ENKTL cells. SNK6 cells were treated with control (CTL), Tf-D-HKN15, Tf-D-HKC15, or Tf-D-HKC8 peptide (0.5 µM) for 6 h and the cells were used for biomedical analysis. a ROS formation, n = 5. b 3-nitrotyrosine (3-NT) formation, n = 5. c 8-OHdG formation, n = 5. d Quantitation of γH2AX formation, n = 5. e Representative western blotting bands for d. f mRNA level by qPCR for BZLF1, BMRF1, and ABCB1, n = 4. g Protein quantitation for Zta, EA-D, and P-gp, n = 5. h Representative pictures of western blots for g. i EBV viral genomes/cell by qPCR, n = 4. *P < 0.05, vs CTL group; ^¶P < 0.05, vs Tf-D-HKC15 group. Results were expressed as mean ± SEM.

SNK6 xenograft = assay: Tumor growth by H&E staining (tumor spots); format: in vivo, mouse; conditions: nude mice, intratumoral 50 µM peptide every 2 days from day ~18, tissue day 50, vs CTL, n = 5
Text: Biomedical analysis of tumor tissues.

SNK6 cells [1] = assay: Intracellular ATP level (luciferin/luciferase); format: cell-based, human; conditions: 0.5 µM peptide, 6 h, vs CTL, n = 5 (Fig. 4g)
Experimental: Measurement of mitochondrial function. Intracellular ATP level was determined using the luciferin/luciferase-induced bioluminescence system. An ATP standard curve was generated at concentrations of 10^-12-10^-3M, and intracellular ATP levels were calculated and expressed as nmol/mg protein. Mitochondrial membrane potential (Δψm) was measured using TMRE (from Molecular Probes T-669) staining. A 600μM T-669 stock solution was prepared using DMSO. Cells were grown on coverslips and immersed in 600nM TMRE for 20 min at 37°C to load them with dye. The labeling medium was then aspirated and the cells were immersed in 150nM TMRE to maintain an equal distribution of the fluorophore. The coverslips were mounted with live cells onto confocal microscopes to image the cells using 548nm excitation/573nm emission filters, and the intensity of TMRE fluorescence was measured using Image J software. Data from 10-20 cells were collected for each experimental condition and mean values of fluorescence intensity ± SEM were calculated (12).

Kasumi-1 = assay: Cell death IC50 by PI staining/FACS; format: cell-based; conditions: Human acute myeloblastic leukemia/EBV(−), 0.1–15 µM, 6 h (suspension) or 12 h (adherent cells), mean ± SEM, read-out: Peptide IC50 (µM), cell death, Kasumi-1
Experimental: (§2) Measurement of apoptosis and cell death. Apoptosis was evaluated by TUNEL assay using the In Situ Cell Death Detection Kit™ (Roche). Cells were fixed in 4% paraformaldehyde and labeled with TUNEL reagents. Stained cells were photographed by a fluorescence microscope (11). For cell death analysis, the propidium iodide (PI) staining was performed by addition of 6.25 µg/ml of PI to the cells, and cell death was immediately evaluated by FACS analysis (3).

U266B1 = assay: Cell death IC50 by PI staining/FACS; format: cell-based; conditions: Human B lymphoblast/EBV(−), 0.1–15 µM, 6 h (suspension) or 12 h (adherent cells), mean ± SEM, read-out: Peptide IC50 (µM), cell death, U266B1
Experimental: as §2

NK92 = assay: Cell death IC50 by PI staining/FACS; format: cell-based; conditions: Human natural killer non-Hodgkin’s lymphoma/EBV(−), 0.1–15 µM, 6 h (suspension) or 12 h (adherent cells), mean ± SEM, read-out: Peptide IC50 (µM), cell death, NK92
Experimental: as §2

MM.1R = assay: Cell death IC50 by PI staining/FACS; format: cell-based; conditions: Human B lymphoblast/EBV(−), 0.1–15 µM, 6 h (suspension) or 12 h (adherent cells), mean ± SEM, read-out: Peptide IC50 (µM), cell death, MM.1R
Experimental: as §2

SW480 = assay: Cell death IC50 by PI staining/FACS; format: cell-based; conditions: Human colorectal adenocarcinoma/EBV(−), 0.1–15 µM, 6 h (suspension) or 12 h (adherent cells), mean ± SEM, read-out: Peptide IC50 (µM), cell death, SW480
Experimental: as §2

MDA-MB-231 = assay: Cell death IC50 by PI staining/FACS; format: cell-based; conditions: Human breast adenocarcinoma/EBV(−), 0.1–15 µM, 6 h (suspension) or 12 h (adherent cells), mean ± SEM, read-out: Peptide IC50 (µM), cell death, MDA-MB-231
Experimental: as §2

HANK1 = assay: Cell death IC50 by PI staining/FACS; format: cell-based; conditions: Human natural killer/T-cell lymphoma/EBV(+), 0.1–15 µM, 6 h (suspension) or 12 h (adherent cells), mean ± SEM, read-out: Peptide IC50 (µM), cell death, HANK1
Experimental: as §2

Hela = assay: Cell death IC50 by PI staining/FACS; format: cell-based; conditions: Human cervix adenocarcinoma/EBV(−), 0.1–15 µM, 6 h (suspension) or 12 h (adherent cells), mean ± SEM, read-out: Peptide IC50 (µM), cell death, Hela
Experimental: as §2

SNK6 cells [2] = conditions: 0.5 µM peptide, 6 h, vs CTL, n = 3 (Fig. 5g)
Experimental: Immunostaining. […] The cells were then washed three times and the FITC labeled anti-mouse secondary antibody (1:100) was added for blotting for another 1 hour. After thorough washing, the slides were visualized and photographed, the nuclei of cells were stained with 4’,6-diamidino-2-phenylindole dihydrochloride (DAPI, #D9542, from Sigma), and the positive Ki-67 cells were quantitated.

SNK6 cells [3] = assay: Colony formation in soft agar; format: cell-based, human; conditions: 0.5 µM peptide, 6 h, vs CTL, n = 5 (Fig. 5e)
Experimental: Colony formation in soft agar. This assay is a method for evaluating the ability of individual cell lines to grow in an anchorage-independent manner. Cells were resuspended in DMEM containing 5% FBS with 0.3% agarose and layered on top of 0.5% agarose in DMEM on 60-mm plates. 1000 cells were seeded in 60mm soft agar dishes for 30 days. The dishes were examined twice per week, and colonies that grew beyond […] in diameter were scored as positive. Each experiment was done in quadruplicate (8).

BMRF1 = assay: mRNA level by qPCR in SNK6 cells; format: cell-based, EBV; conditions: 0.5 µM peptide, 6 h, vs CTL, n = 4 (Fig. 3f)
Experimental: as §1

BZLF1 = assay: mRNA level by qPCR in SNK6 cells; format: cell-based, EBV; conditions: 0.5 µM peptide, 6 h, vs CTL, n = 4 (Fig. 3f)
Experimental: as §1

| Substance | ABCB1 mRNA (ABCB1) | tumor growth using H&E staining (tumor spots) (SNK6 xenograft) | intracellular ATP generation (SNK6 cells [1]) | IC50 (Kasumi-1) | IC50 (U266B1) | IC50 (NK92) | IC50 (MM.1R) | IC50 (SW480) | IC50 (MDA-MB-231) | IC50 (HANK1) | IC50 (Hela) | cell proliferation by quantitation of Ki-67 positive cells (SNK6 cells [2]) | colony formation (SNK6 cells [3]) | BMRF1 mRNA (BMRF1) | BZLF1 mRNA (BZLF1) |
| --- | --- | --- | --- | --- | --- | --- | --- | --- | --- | --- | --- | --- | --- | --- | --- |
| HAIYPRH-LQQAQKEN [Tf-D-HKC8] | 27% | 23% | 30% | 1.8 ± 0.6 µM | 1.4 ± 0.3 µM | 0.9 ± 0.4 µM | 1.6 ± 0.4 µM | 6.7 ± 0.8 µM | 11.6 ± 1.1 µM | 0.7 ± 0.4 µM | 6.8 ± 0.9 µM | 27% | 28% | 31% | 21% |
| HAIYPRH-ITAVAKRLQQAQKEN [Tf-D-HKC15] | 58% | 56% | 61% | 2.7 ± 0.9 µM | 2.2 ± 0.6 µM | 1.5 ± 0.6 µM | 2.3 ± 0.7 µM | 8.9 ± 0.9 µM | 14.4 ± 0.8 µM | 1.4 ± 0.6 µM | 9.8 ± 0.6 µM | 70% | 64% | 65% | 47% |
